According to patent EP4427750A1, “TREATMENT OF LUNG ADENOCARCINOMA” (priority 2023, dated 2024):
Read-outs that look alike come from different tables or passages of the source.

Experiments:
TTK = assay: Western blot of TTK protein expression in A549 cells after drug treatment; type: cell-based; settings: A549, 10µM
Method: PVDF membranes were blocked for 30 minutes with 5% skim milk and TBST (Tris Buffered Saline with 0.2% Tween 20) and then treated overnight on a shaker plate at 4°C with 0.5% skim milk with TBST and MCM6 (Abcam Cat# ab201683) and TTK (Abcam Cat# ab187520) primary antibodies diluted 1:20000 and for 30 minutes with TUBA1A (Abeam Cat# ab7291, RRID:AB_2241126) primary antibodies diluted 1:20000. The solution was then replaced with a new solution of 0.5% skim milk with TBST and anti-rabbit (Abeam Cat# ab6721, RRID:AB_955447) or anti-mouse (Abeam Cat# ab6789, RRID:AB_955439) secondary antibodies diluted 1:20000 for 30 minutes.

MCM6 = assay: Western blot of MCM6 protein expression in A549 cells after drug treatment
A549 cell line [1] = assay: cells; type: cell-based; settings: Homo sapiens
Method: A549 cells were obtained from ATCC and cultured with culture medium (D0819 DMEM 10% FBS 1% penicillin/streptomycin) at 37°C. Cell viability was measured using an MTT assay. MTT ((3-[4,5-dimethylthiazol-2-yl]-2,5-diphenyltetrazolium bromide) (1x), at 5 mg/ml) was added for 1 hour and formazan was dissolved with DMSO (dimethyl sulfoxide). Optical density at a wavelength of 570 nm was measured using a microplate reader (Hidex plate reader) to quantify the relative number of living cells. To determine treatment concentrations, cells were treated with serially diluted drugs until a concentration that reduced cell viability by around 50%. […] Cells were treated with the drugs at their designated concentrations for two days.

A549 cell line [2] = assay: LDH cytotoxicity assay; type: cell-based
Method: 30 minutes after LDH (Abcam Cat# ab65393) administration, optical density at a wavelength of 450 nm was measured using a microplate reader (Hidex plate reader) to quantify the relative LDH activity which was released into the media via the drug's cytotoxic effect.

[3] = A549, 48 h, read-out: cell viability
[4] = A549, dose dependent MTT assay, read-out: concentration which could reduce the cell viability by 50%

SMILES | effect on TTK protein level (TTK) | protein level of MCM6 (MCM6; A549, 10µM) | viability at 10 µM (A549 cell line [1]; [3]) [%] | IC50 (A549 cell line [1]; [4]) [µM] | necrotic cell death (A549 cell line [2]; A549, 10µM, lysis positive control 100%, untreated 0%) | protein level of MCM6 (MCM6; A549, 100nM) | viability at 0.1 µM (A549 cell line [1]; [3]) [%] | cytotoxicity at 0.1 µM (A549 cell line [2]; Homo sapiens, A549, 48 h, read-out: necrotic cell death) [%] | IC50 (A549 cell line [1]; A549, read-out: concentration which could reduce the cell viability by 50%) [µM] | necrotic cell death (A549 cell line [2])
OCCCNc1cc(-c2ccnc(Nc3cccc(Cl)c3)n2)ccn1 [CGP-60474] | showed an inhibitory effect on TTK | significantly reduced | 29.1 | 10 | did not induce necrotic cell death | – | – | – | – | –
O=C1c2c(O)ccc(O)c2C(=O)c2c(NCCNCCO)ccc(NCCNCCO)c21 [mitoxantrone] | – | – | – | 0.1 | – | significantly reduced | 52.2 | 3.45 | – | –
COC[C@H]1OC(=O)c2coc3c2[C@@]1(C)C1=C(C3=O)[C@@H]2CCC(=O)[C@@]2(C)C[C@H]1OC(C)=O [wortmannin] | – | – | 62.3 | – | – | – | – | – | 10 | did not induce necrotic cell death
